Experimental data from ChEMBL document CHEMBL1201862, “PubChem BioAssay data set” (2004).
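Method: 48-hour compound exposure of cells in 96-well plates, five concentrations, linear interpolation of endpoints. GI50: concentration for 50% inhibition of growth.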 Calls of active or inactive are those of the source. Rule as the data show it: active = GI50 up to about 1.1 µM and inactive = higher.

Columns and labels:
Assay in all cases: inhibition of tumour cell growth, NCI panel, 48 h
HCT-15 = tested on: HCT-15
SK-OV-3 = tested on: SK-OV-3
NCI-H23 = tested on: NCI-H23
CCRF-CEM = tested on: CCRF-CEM
KM12 = tested on: KM12
SF-268 = tested on: SF-268
A549 = tested on: A549
U-251 = tested on: U-251
SW-620 = tested on: SW-620
HCC 2998 = tested on: HCC 2998
UACC-62 = tested on: UACC-62
MDA-MB-231 = tested on: MDA-MB-231
DU-145 = tested on: DU-145
NCI-H460 = tested on: NCI-H460
NCI-H226 = tested on: NCI-H226
786-0 = tested on: 786-0
PC-3 = tested on: PC-3
COLO 205 = tested on: COLO 205
OVCAR-8 = tested on: OVCAR-8
MCF7 = tested on: MCF7
HL-60 = tested on: HL-60
SN12C = tested on: SN12C
SNB-19 = tested on: SNB-19
BT-549 = tested on: BT-549
HOP-62 = tested on: HOP-62
EKVX = tested on: EKVX
MDA-N = tested on: MDA-N
ACHN = tested on: ACHN
OVCAR-4 = tested on: OVCAR-4
OVCAR-3 = tested on: OVCAR-3
HT-29 = tested on: HT-29
LOX IMVI = tested on: LOX IMVI
TK-10 = tested on: TK-10
SF-295 = tested on: SF-295
SF-539 = tested on: SF-539
UACC-257 = tested on: UACC-257
OVCAR-5 = tested on: OVCAR-5
RXF 393 = tested on: RXF 393
UO-31 = tested on: UO-31
SK-MEL-28 = tested on: SK-MEL-28
NCI/ADR-RES = tested on: NCI/ADR-RES
K562 = tested on: K562
HCT-116 = tested on: HCT-116
M14 = tested on: M14
Malme-3M = tested on: Malme-3M
MOLT-4 = tested on: MOLT-4
HOP-92 = tested on: HOP-92
Hs-578T = tested on: Hs-578T
RPMI-8226 = tested on: RPMI-8226
SK-MEL-5 = tested on: SK-MEL-5
CAKI-1 = tested on: CAKI-1
MDA-MB-435 = tested on: MDA-MB-435
A498 = tested on: A498
IGROV-1 = tested on: IGROV-1
T47D = tested on: T47D
SK-MEL-2 = tested on: SK-MEL-2
SNB-75 = tested on: SNB-75
NCI-H522 = tested on: NCI-H522
SR = tested on: SR

Measured: GI50

Cc1ccc(OCC2CO2)c(Br)c1 (stereo unspecified)
active: BT-549 < 0.01 µM
14 µM: HCT-15
inactive: SK-OV-3 19.1 µM | NCI-H23 22.5 µM | CCRF-CEM 27.9 µM | KM12 66.7 µM | SF-268 13.1 µM | A549 20.3 µM | U-251 15.2 µM | SW-620 12.7 µM | HCC 2998 16 µM | UACC-62 17.7 µM | MDA-MB-231 21.9 µM | DU-145 38.4 µM | NCI-H460 21.9 µM | NCI-H226 15.9 µM | 786-0 19.5 µM | PC-3 47.3 µM | COLO 205 17.7 µM | OVCAR-8 7.8 µM | MCF7 14.7 µM | HL-60 30.1 µM | SN12C 18.6 µM | SNB-19 41.3 µM | HOP-62 39.4 µM | EKVX 13.8 µM | MDA-N 19.5 µM | ACHN 5.5 µM | OVCAR-4 14.7 µM | OVCAR-3 25.1 µM | HT-29 12.7 µM | LOX IMVI 12.1 µM | TK-10 30.3 µM | SF-295 21 µM | SF-539 15 µM | UACC-257 37.8 µM | OVCAR-5 17.5 µM | RXF 393 10.1 µM | UO-31 18.5 µM | SK-MEL-28 27.5 µM | NCI/ADR-RES 15.8 µM | K562 22.3 µM | HCT-116 16.1 µM | M14 34.1 µM | Malme-3M 56.5 µM | MOLT-4 7.83 µM | HOP-92 14.7 µM | Hs-578T 28.5 µM | RPMI-8226 25.1 µM | SK-MEL-5 18.1 µM | CAKI-1 33.7 µM | MDA-MB-435 18.7 µM | A498 34.4 µM | IGROV-1 15.5 µM | T47D 63.1 µM

C/C=C/C=C\C=C/C(O)C(C)C(CCC(C)C1OC(=O)C=CC1C)OP(=O)(O)O (stereo unspecified)
0.445 µM: HCT-15
inactive: NCI-H23 1.52 µM | MDA-MB-231 35.8 µM | OVCAR-4 1.23 µM | UACC-257 1.15 µM | Hs-578T 1.42 µM | NCI-H522 1.35 µM
active: SK-OV-3 0.502 µM | SK-MEL-2 0.692 µM | CCRF-CEM 0.243 µM | KM12 0.318 µM | SF-268 0.59 µM | A549 0.538 µM | U-251 0.893 µM | SW-620 0.479 µM | UACC-62 0.319 µM | DU-145 0.399 µM | NCI-H460 0.4 µM | NCI-H226 0.614 µM | 786-0 0.404 µM | PC-3 0.23 µM | COLO 205 0.268 µM | OVCAR-8 0.451 µM | MCF7 0.272 µM | SNB-75 0.986 µM | HL-60 0.0425 µM | SN12C 0.323 µM | SNB-19 0.562 µM | BT-549 0.224 µM | HOP-62 0.303 µM | EKVX 0.447 µM | MDA-N 0.296 µM | ACHN 0.351 µM | OVCAR-3 0.182 µM | HT-29 0.376 µM | LOX IMVI 0.314 µM | TK-10 0.618 µM | SF-295 0.287 µM | SF-539 0.461 µM | OVCAR-5 0.263 µM | RXF 393 0.527 µM | UO-31 0.399 µM | SK-MEL-28 0.804 µM | NCI/ADR-RES 0.897 µM | K562 0.183 µM | HCT-116 0.251 µM | M14 0.229 µM | Malme-3M 0.232 µM | MOLT-4 0.275 µM | HOP-92 0.244 µM | RPMI-8226 0.127 µM | SK-MEL-5 0.658 µM | CAKI-1 0.136 µM | SR 0.176 µM | MDA-MB-435 0.133 µM | A498 0.22 µM | IGROV-1 0.275 µM | T47D 0.386 µM

Nc1nc(N)nc(CC(=O)O)n1
inactive: SK-OV-3 > 100 µM | NCI-H23 > 100 µM | SK-MEL-2 > 100 µM | CCRF-CEM > 100 µM | KM12 > 100 µM | SF-268 > 100 µM | A549 > 100 µM | U-251 > 100 µM | SW-620 > 100 µM | UACC-62 > 100 µM | MDA-MB-231 > 100 µM | DU-145 > 100 µM | NCI-H460 > 100 µM | NCI-H226 > 100 µM | 786-0 > 100 µM | PC-3 > 100 µM | COLO 205 > 100 µM | OVCAR-8 > 100 µM | MCF7 > 100 µM | SNB-75 > 100 µM | HL-60 > 100 µM | SN12C > 100 µM | SNB-19 > 100 µM | BT-549 > 100 µM | HOP-62 > 100 µM | EKVX > 100 µM | MDA-N > 100 µM | ACHN > 100 µM | OVCAR-4 > 100 µM | OVCAR-3 > 100 µM | HT-29 > 100 µM | LOX IMVI > 100 µM | TK-10 > 100 µM | SF-295 > 100 µM | SF-539 > 100 µM | UACC-257 > 100 µM | OVCAR-5 > 100 µM | RXF 393 > 100 µM | UO-31 > 100 µM | SK-MEL-28 > 100 µM | NCI/ADR-RES > 100 µM | K562 > 100 µM | HCT-116 > 100 µM | M14 > 100 µM | Malme-3M > 100 µM | MOLT-4 > 100 µM | HOP-92 > 100 µM | Hs-578T > 100 µM | RPMI-8226 > 100 µM | NCI-H522 > 100 µM | SK-MEL-5 > 100 µM | CAKI-1 > 100 µM | SR > 100 µM | MDA-MB-435 > 100 µM | A498 > 100 µM | IGROV-1 > 100 µM | T47D > 100 µM
> 100 µM: HCT-15
